From a melting point compilation (Tetko et al.; mined from patent text by program, amines drawn as free bases though some values may be those of a salt)

Row | SMILES | melting point [°C]
1 | CSc1sc(C2NCCO2)c2c1C(=O)CC(C)(C)C2 (stereo not drawn) | 190 to 193
2 | CONC(=N)c1nn(-c2c(Cl)cc(C(F)(F)F)cc2Cl)c(N)c1S(C)=O (stereo not drawn) | 169 to 170
3 | N#Cc1cc2c(c(C(=O)O)c1)NCCC2 | 238
4 | N#Cc1c(Cl)csc1N | 230
5 | Cn1cc(S(C)=O)c(=O)c2ccc(F)cc21 (stereo not drawn) | 226 to 228
6 | COc1ccc2c(-c3ccccc3)nc(=NO)c(=O)n(C)c2c1 | 206 to 207
7 | CC(C)(C)OC(=O)CON=C(C(=O)OC(c1ccccc1)c1ccccc1)c1ncsn1 | 139 to 141
8 | COc1cc(C)nc(-c2ccc(CBr)cc2)n1 | 98 to 99
9 | COc1ccc2[nH]cc(C)c2c1OCc1ccccc1 | 60 to 61
10 | CC(C)(C)C(=O)C(Br)Cc1ccc(Cl)cc1 (stereo not drawn) | 48 to 50
11 | COC(=O)C(C)(C)N(OC(C)(C)C#N)C(C)(C)C | 78 to 85
12 | O=C1CCC(C(=O)O)C(=O)N1 (stereo not drawn) | 116 to 118
13 | CC(C)c1ccc2ncn(/C=C/C(=O)O)c(=O)c2c1 | 242 to 243
14 | COc1ccccc1N1CCN(Cc2cnc(N)nc2N)CC1 | 195 to 196
15 | CC(C)(C)OC(=O)N1C[C@@H](S)C[C@@H]1CN(C(=O)OC(C)(C)C)S(N)(=O)=O | 90 to 91.5
16 | COc1cc(OCc2cccnc2)ccc1/C=C/c1cc(/C=C/c2c[nH]c3ccccc23)n[nH]1 | 129 to 137
17 | CCOC(=S)c1[nH]c(C)nc1C(C)(C)O | 128 to 129
18 | COC(=O)c1sc(C)c(C)c1OC | 37 to 39
19 | N#Cc1ccc2c(c1)C=C(C(=O)O)C(C(F)(F)F)N2 (stereo not drawn) | 238 to 240
20 | COc1ccc(C2CCC(=O)CC2NC(=O)c2ccc(OCC3CC3)c(OCC3CC3)c2)cc1OC (stereo not drawn) | 150 to 152
21 | N#Cc1ccc2c(c1)ncn2-c1cccc(I)c1 | 177 to 179
22 | O=C1Cc2cc(O)ccc2N1c1c(Cl)cccc1Cl | 204 to 205
23 | CNC(=O)OC(Cn1ccnc1)c1ccc(Cl)cc1Cl (stereo not drawn) | 106 to 108

Row | SMILES | melting point [°C]
24 | CCCc1nn(C)c2c(=O)n(CCNc3ccc(OC(C)(C)C(=O)O)cc3)c(CC)nc12 | 136 to 138
25 | Clc1ccc([C@H]2C[C@@H]3CC[C@@H]4[C@H]2C(=NOCc2ccccc2)CN34)cc1Cl | 72 to 74
26 | CN1C(CO)=Cc2cc(S(N)(=O)=O)sc2S1(=O)=O | 144 to 146
27 | Cc1onc(-c2ccccc2)c1COc1ccc(-c2cc(O)c(SCCc3ccccc3)c(=O)o2)cc1 | 126 to 128
28 | Cc1c(Br)ccc(C=NO)c1Cl | 77 to 78
29 | Cc1cc(CO)oc1CN(C)C | 104 to 106
30 | CC(/C=C/c1c(C)sc(C)c1C)=C(F)\C=C\C(C)=C\C=O | 129 to 131
31 | CCOC(=O)C1(C)CCc2ccccc2O1 (stereo not drawn) | 79 to 80
32 | Cc1oc(-c2ccco2)nc1COc1ccc(CCl)cc1Cl | 103 to 104
33 | O=c1oc2cc(O)ccc2c2c1CCCCC2 | 189 to 190
34 | CC(C)(C)c1csc(-c2cc3cc(OCc4cccc(C#N)c4)ccc3o2)n1 | 104 to 106
35 | C=CCCC(C(=O)O)(C(=O)O)C(F)F | 80 to 81
36 | CCCCCS(=O)(=O)NC(=O)/C=C/c1ccc(OCCCOCCOC)cc1Oc1ncc(C(F)(F)F)cc1Cl | 103 to 105
37 | NCCNc1ccc2ccccc2n1 | 124 to 125
38 | NC(=O)Cc1ccc(CCCOCCCCCCNCC(O)c2cc(Cl)c(N)c(Cl)c2)cc1 (stereo not drawn) | 104 to 106
39 | COC(=O)Nc1cccc(C)c1CNc1cccn2c(C)c(C)nc12 | 136 to 138
40 | O=C(Nc1cnc2c(c1)nc1n2CCC1)c1cc2cc(F)ccc2n1Cc1cccc(F)c1 | 227 to 229
41 | CCN1c2ncccc2C(=O)Nc2c(C)cc(N3CCC[C@H]3CO)nc21 | 238 to 240
42 | CC(C)(C)c1cc(-c2nc(S)sc2-c2ccccc2)cc(C(C)(C)C)c1O | 168 to 171
43 | CNc1nc(Cl)ccc1[N+](=O)[O-] | 114
44 | OCC1OC(n2c(Br)nc3cc(Cl)c(Cl)cc32)C(O)C1O (stereo not drawn) | 169
45 | Nc1c(F)c(Oc2ccc(Cl)c(Cl)c2)nc(C(=O)O)c1Cl | 156 to 160
46 | O=C(O)CC1(c2ccc(Cl)cc2Cl)CNC(=O)C1 (stereo not drawn) | 188 to 192

Row | SMILES | melting point [°C]
47 | CON1C(C)(C)CC(=O)CC1(C)C | 35 to 38
48 | CN(C)C(=O)c1ncccc1OC1SCC(O)C(O)C1O (stereo not drawn) | 80 to 85
49 | Cn1c(Br)c(Br)c(Br)c1C#N | 115 to 119
50 | O=C(O)[C@@H]1CSC2(CCSCC2)N1 | 196
51 | CC(C=Cc1ccccc1-c1cc2c(cc1C)C(C)(C)CCC2(C)C)=CC(=O)O | 181 to 182
52 | CC(=O)N1CCN(c2cc3c(c(C)c2F)c(=O)c(C(=O)O)cn3C2CC2)CC1 | 261 to 263
53 | CC(C)(C)c1cc(C(C)(C)C)[nH]n1 | 191 to 193
54 | Cc1ccc(C2c3c(cc(C)c(Br)c3C)OC2(C)C)cc1 (stereo not drawn) | 116 to 118
55 | CCC(C)(C)NCCC(C(=O)O)C(=O)c1ccc(Cl)cc1Cl (stereo not drawn) | 124 to 126
56 | CC(C)(C)OC(=O)Nc1cc(OCC#N)c(-c2ccc(F)cc2)cc1N | 118 to 119
57 | CCOC(=O)c1cn(C2CCCCC2)nc1O | 91 to 92
58 | COCc1noc(N2CCC([C@H]3C[C@H]3CCOc3ccc(S(C)(=O)=O)cn3)CC2)n1 | 68 to 70
59 | O=c1n(CCCC2CCCCC2)nnn1-c1ccc(S(=O)(=O)Cl)cc1 | 114 to 115
60 | CCCCc1ccc(NC(N)=S)cc1 | 123 to 125
61 | COc1ccc(OC)c(-c2cc3c(Nc4cccc(Cl)c4)ncnc3[nH]2)c1 | 267 to 268
62 | COc1ccc(N2Cc3cnc(Nc4ccc(F)cc4)nc3N([C@@H](C)CO)C2=O)c(F)c1 | 173 to 177
63 | CN(Cc1ccc(Cl)cc1)C(=O)CC12CC3CC(CC(C3)C1)C2 | 75 to 76
64 | COc1ccc2c(c1C)OC(C)(C)CC2=O | 105 to 107
65 | CCCCCc1cn(CCCC)c(=O)n1Cc1ccc(-c2ccccc2-c2nnn[nH]2)nc1 | 176 to 177
66 | CCCN1CCC(c2ccccc2)=C(C(=O)NOCc2ccccc2)C1 | 143 to 145
67 | CC(C)(C)OC(=O)NCCc1c[nH]c2ccc(C#N)cc12 | 129 to 132
68 | CC(=O)NCC(=O)NCC1(S)C2CC3CC(C2)CC1C3 (stereo not drawn) | 154 to 157
69 | CC(C)c1nc2c(c3c1[nH]c1ccccc13)C(=O)C(C)(C)CC2 | 182 to 184

Continued, values first:

Row | melting point [°C] | SMILES
70 | 101 | CC(=O)N1CCC(C(=O)OC2c3ccccc3C(=O)N2c2ccc3ccc(Cl)nc3n2)CC1 (stereo not drawn)
71 | > 250 | O=C1CCC(c2ccc(-c3ccc(=O)[nH]n3)cc2)=NN1
72 | 186 to 188 | O=C(O)CCC(=O)c1ccc2oc3ccccc3c2c1
73 | 192 to 193 | CC(C)(C)OC(=O)NCc1cccc(C(=O)N[C@H]2C[C@H](C(=O)O)Nc3cc(Cl)cc(Cl)c32)c1 (relative stereo)
74 | > 300 | CCCn1c(=O)c(=O)[nH]c2cc([N+](=O)[O-])c(-n3ccc(=O)cc3)cc21
75 | 171 | COC(=O)c1cc(C(=O)c2c(C)c(NC(=O)c3cccc(OCCOS(C)(=O)=O)c3)c3ccccn23)ccc1N
76 | 258 to 259 | O=C(c1ccccc1)c1c(O)c2cc(Cl)cc(Cl)c2[nH]c1=O
77 | 94 to 96 | CC(C)(CCCC(=O)O)c1ccc(O)cc1
78 | 133 to 135 | COc1ccc2c(c1)C(CCNC(C)=O)=C(Cc1ccccc1)C2
79 | 157 to 158 | CC(C)n1nc(-c2c(-c3ccccc3)nn3ccc(C(=O)NCCN(C)C)cc23)ccc1=O
80 | 192 to 194 | Nc1n[nH]c(NC(=O)c2ccc3ccccc3c2)n1
81 | 192 to 194 | CN(C)CCCC(C(=O)O)c1ccccc1-c1ccccc1 (stereo not drawn)
82 | 215 to 216 | NC(=O)N1C(=O)C(=C(OC(=O)c2ccco2)c2cccs2)c2cc(F)c(Cl)cc21
83 | 111 to 112 | CCN(CC)C(=O)CCc1cc(-c2ccc(Cl)cc2)n(-c2ccc(OC)cc2)n1
84 | 199 to 201 | CN(C)C(=O)NNC(=O)c1ccccc1
85 | 165 to 168 | Cc1sc2c(Br)c3ccccc3c(-c3ccc(O)cc3)c2c1C
86 | 101 to 102 | Nc1cnccc1C(=O)Nc1ccc(-n2nc(C(F)(F)F)cc2C(F)(F)F)cc1

Row | melting point [°C] | SMILES
87 | 178 to 179 | CC(=O)NCC1CN(c2ccc(N3CCN(C(=O)CCC(=O)c4ccc(CN5CCOCC5)cc4)CC3)c(F)c2)C(=O)O1 (stereo not drawn)
88 | 215 to 216 | O=C(c1cc(O)cc2cc(-c3ccc(O)cc3)oc12)C(F)(F)F
89 | 184 to 185 | COc1ccc(CNc2nc(NCCCc3ccc(C(C)=O)cc3)nc3ncccc23)cc1OC
90 | 94 to 95 | COCCNC(=O)c1cc(-c2cccc3cc(Cc4cccc(C(F)(F)F)c4)sc23)ccc1F
91 | 294 | O=C(NNC(=O)c1ccc([N+](=O)[O-])cc1)c1ccc([N+](=O)[O-])cc1
92 | 233 to 234 | Cc1ccc(-c2c(CNC(=O)OC(C)(C)C)n(CC(C)C)c(=O)c3ccc(O)cc23)cc1
93 | 250 to 253 | Cc1cc2nn(C)c(=O)n2nc1-c1cccc([N+](=O)[O-])c1
94 | 180 to 183 | O=C(CS(=O)(=O)c1ccccc1)NNC(=O)N1Cc2ccccc2Oc2ccc(Cl)cc21
95 | 139 to 142 | COc1ccc(C(CC(C)(C)C(=O)O)c2ccc(Cl)cc2)cc1 (stereo not drawn)
96 | 194 to 198 | Nc1ncnc2c1c(-c1ccccc1)cn2-c1cccc(C(=O)NCCO)c1
97 | 138 to 140 | CCC(=C(c1ccccc1)c1ccc(C=CC(=O)N(CC)CC)cc1)c1ccccc1
98 | 239 to 241 | Cc1ccc(C(=O)NCc2ccccc2)cc1-c1nc(S(C)(=O)=O)nc2c1CNC(=O)N2c1c(F)cccc1F
99 | 211 to 213 | COc1ccc(NS(=O)(=O)c2cc(S(=O)(=O)Nc3ccc(OC)cc3C)c3cc(O)ccc3c2)c(C)c1
100 | 85 to 86 | Cc1oc(-c2ccc(C(F)(F)F)cc2)cc1COc1cccc(C=O)c1
101 | 132 | CC(CC#N)Nc1cc(Oc2ccc(S(=O)(=O)C(C)C)cc2Cl)ccc1[N+](=O)[O-] (stereo not drawn)
102 | 135 to 136 | Cn1c(C(F)(F)F)cc(=O)n(-c2ccc([N+](=O)[O-])cc2F)c1=O
103 | 113 | COC(=O)Cc1nc(-c2ccc(Cl)cc2)oc1Oc1cc(C)ccc1C
